Like-named read-outs stand apart in the source and are kept apart here.
What was measured:
[1] = Solvency: maximum amount of active ingredient solubilized per liter of solvent; conditions: for Solvency in N-methylpyrrolidone (NMP): solvent N-methylpyrrolidone (NMP); for Solvency in γ-butyrolactone: solvent γ-butyrolactone
Description: The above compositions were prepared at a temperature of about 50° ° C. stirred with a vortex mixer until visual inspection indicated the absence of solids, confirming solubilization of the active ingredient in the solvent.

[2] = Crystallization test of azoxystrobin solution upon dilution in water; type: physicochemical; conditions: azoxystrobin solution (100 g/L) in the solvent diluted 1:20 in water
From the text: The active ingredient azoxystrobin was chosen to carry out an additional test of crystallization of the active ingredient upon dilution in water. […] Among the solvents chosen for evaluation are the solvents dihydrolevoglucosenone, γ-butyrolactone, N-methylpyrrolidone, and triacetin.

[3] = tested on: Euphorbia pulcherrima (Euphorbiaceae), Poinsettia
From the text: Phytotoxicity data were generated in tests on Poinsettia (red leaves plant), since this leaf is sensitive to damage caused by chemical agents, which makes it possible to verify and compare the tested solvents.

[4] = 1-octanol/water; cited from earlier work
[5] = safety data sheet class; cited from earlier work
[6] = Euphorbia pulcherrima (Poinsettia), in vivo, 24 h

**Q.** With CO/C=C(/C(=O)OC)c1ccccc1Oc1cc(Oc2ccccc2C#N)ncn1 [Azoxystrobin] as the compound, how does the “Solvency in N-methylpyrrolidone (NMP)” value [1] read?
**A.** The value was 900 g/L.

**Q.** What about the “Solvency in γ-butyrolactone” value [1] of the same compound?
**A.** Its value is 800 g/L.

**Q.** What does the source list for CS(=O)(=O)c1ccc(C(=O)C2C(=O)CCCC2=O)c([N+](=O)[O-])c1 [Mesotrione]?
**A.** Solvency in N-methylpyrrolidone (NMP) [1]: 400 g/L; Solvency in γ-butyrolactone [1]: 300 g/L

**Q.** For CN1CCCC1=O [NMP, N-methylpyrrolidone], which Observation by dilution [2] is on record?
**A.** The Observation by dilution was “Immediate”.

**Q.** What about the “Phytotoxicity (damage %)” value [3, 6] of the same compound?
**A.** Its value is 42%.

**Q.** And the logP [4]?
**A.** Its logP is −0.40.

**Q.** And the Eye irritation [5]?
**A.** Its Eye irritation is 2A.

**Q.** And the Reproductive system tox. [5]?
**A.** The Reproductive system tox. was 1B.

**Q.** What about the Respiratory tox. [5] of the same compound?
**A.** The Respiratory tox. was 3.

**Q.** And the Skin irritation [5]?
**A.** The Skin irritation was 2.

**Q.** For OC(Cc1ccccc1Cl)(Cn1nc[nH]c1=S)C1(Cl)CC1 (centres unmarked) [Prothioconazole], which “Solvency in N-methylpyrrolidone (NMP)” value [1] is on record?
**A.** Its value is 1100 g/L.

**Q.** What about the “Solvency in γ-butyrolactone” value [1] of the same compound?
**A.** Its value is 900 g/L.

**Q.** With CC(=O)OCC(COC(C)=O)OC(C)=O [Triacetin] as the compound, how does the Observation by dilution [2] read?
**A.** The Observation by dilution was “Two-phase”.

**Q.** For O=C1CCC2COC1O2 (centres unmarked) [dihydrolevoglucosenone, 6,8-dioxabicyclo[3.2.1]octan-4-one], which Observation by dilution [2] is on record?
**A.** Its Observation by dilution is “Two-phase”.

**Q.** What about the “Phytotoxicity (damage %)” value [3, 6] of the same compound?
**A.** The value was 6%.

**Q.** And the logP [4]?
**A.** Its logP is −1.52.

**Q.** What about the Eye irritation [5] of the same compound?
**A.** The Eye irritation was 2A.

**Q.** For O=C1CCCO1 [γ-butyrolactone], which Observation by dilution [2] is on record?
**A.** The Observation by dilution was “Immediate”.

**Q.** What about the “Phytotoxicity (damage %)” value ([3]; damage observed in each Poinsettia leaf after 24 h of exposure) of the same compound?
**A.** Its value is 27%.

**Q.** And the Aquatic environment tox. [5]?
**A.** Its Aquatic environment tox. is 3.

**Q.** What about the “Central nervous system tox.” value [5] of the same compound?
**A.** Its value is 3.

**Q.** And the Eye irritation [5]?
**A.** Its Eye irritation is 1.

Reference: patent US20240251787A1, “AGROCHEMICAL COMPOSITION, AGROCHEMICAL FORMULATION, USE OF A DIOXABICYCLOALKANE DERIVATIVE, AND, METHOD FOR THE TREATMENT AND/OR PREVENTION OF DISEASES OR PESTS IN A PLANT OR PLANT SEED” (Oxiteno S.A. Indústria e Comércio, priority 2021, published 2024)
